This note sets out measurements from article PMC12116762, “Topobexin targets the Topoisomerase II ATPase domain for beta isoform-selective inhibition and anthracycline cardioprotection” (Nature Communications, 2025).

“And” between values parts separate entries of the source, which are not always exact repeats. Equal entries are not always repeated.

The test concerns the target T1, TOP2A-DNA covalent complex (Homo sapiens, UniProt P11388).
T1 construct: endogenous in cells; host or cells: HEK293F
In words: RADAR assay, etoposide-induced TOP2A-DNA covalent complex in HEK293F cells. In kind it is cell-based. Conditions: for TOP2A spot intensity: independent replicates. On the procedure: HEK293F cells were plated at 3 × 10^5 cells per well and grown overnight. […] Upon removal of media, cells in each well were immediately lysed with 750 µL DNAzol (Molecular Research Center, Inc.) and the DNA was precipitated by addition of 375 µL of 100% ethanol. This step was then repeated to eliminate protein aggregates. Precipitate from each sample was pelleted via centrifugation at 4 °C and max speed for 5 min. The pellets were washed twice with buffer containing 20 mM Tris pH 7.5, 1 mM EDTA pH 8.0, 50 mM NaCl, 50% EtOH, and at the end of each wash, centrifugation at 4000 × g for 2 min was repeated to isolate the DNA pellets. The pellets were washed in 75% EtOH and then collected by centrifugation at 4 °C and max speed for 5 min. The supernatant was removed via pipetting, and the remaining pellets were air dried for 5 min before 50 µL 8 mM NaOH and 0.1% Tween-20 was added to each pellet. Once no visible precipitate remained, each mixture was supplemented with 5 µL of Benzonase buffer containing 500 mM Tris pH 8.0, 10 mM MgCl2, 1/1000 Roche complete protease inhibitor cocktail (Millipore Sigma) and 40 units Benzonase (Millipore Sigma) followed by 30 to 60 min incubation at 37 °C until the pellets were fully dissolved. The DNA content from each sample was quantified on a nanodrop, and 10 µg of DNA was diluted to a final volume of 200 µL in 8 mM NaOH and 0.1% Tween. The samples were applied over the Whatman Minifold I dot blot apparatus (Cytiva) and collected on a PVDF membrane (Thermo Fisher Scientific). The membrane was washed three times with 8 mM NaOH and 0.1% Tween-20 solution prior to removal and blocking with the same wash solution containing 1 mg/mL BSA. Western blotting was carried out on an iBind (Thermo Fisher Scientific) and TOP2 proteins were detected using isoform-specific antibody against full length TOP2A (1:250 dilution; HT2A21, Inspiralis) and TOP2B (1:500 dilution; 611493, BD Biosciences) and visualized with anti-rabbit (1:1000 dilution; 926-68071, LI-COR Bio) and anti-mouse (1:1000 dilution; 926-32210, LI-COR Bio) secondary antibodies in iBind running buffer. The blots were imaged on a LI-COR Odyssey Fc and analysed using ImageStudio. Each presented data point was obtained from distinct sample.

T1 sequence (P11388 whole entry, one chain of several): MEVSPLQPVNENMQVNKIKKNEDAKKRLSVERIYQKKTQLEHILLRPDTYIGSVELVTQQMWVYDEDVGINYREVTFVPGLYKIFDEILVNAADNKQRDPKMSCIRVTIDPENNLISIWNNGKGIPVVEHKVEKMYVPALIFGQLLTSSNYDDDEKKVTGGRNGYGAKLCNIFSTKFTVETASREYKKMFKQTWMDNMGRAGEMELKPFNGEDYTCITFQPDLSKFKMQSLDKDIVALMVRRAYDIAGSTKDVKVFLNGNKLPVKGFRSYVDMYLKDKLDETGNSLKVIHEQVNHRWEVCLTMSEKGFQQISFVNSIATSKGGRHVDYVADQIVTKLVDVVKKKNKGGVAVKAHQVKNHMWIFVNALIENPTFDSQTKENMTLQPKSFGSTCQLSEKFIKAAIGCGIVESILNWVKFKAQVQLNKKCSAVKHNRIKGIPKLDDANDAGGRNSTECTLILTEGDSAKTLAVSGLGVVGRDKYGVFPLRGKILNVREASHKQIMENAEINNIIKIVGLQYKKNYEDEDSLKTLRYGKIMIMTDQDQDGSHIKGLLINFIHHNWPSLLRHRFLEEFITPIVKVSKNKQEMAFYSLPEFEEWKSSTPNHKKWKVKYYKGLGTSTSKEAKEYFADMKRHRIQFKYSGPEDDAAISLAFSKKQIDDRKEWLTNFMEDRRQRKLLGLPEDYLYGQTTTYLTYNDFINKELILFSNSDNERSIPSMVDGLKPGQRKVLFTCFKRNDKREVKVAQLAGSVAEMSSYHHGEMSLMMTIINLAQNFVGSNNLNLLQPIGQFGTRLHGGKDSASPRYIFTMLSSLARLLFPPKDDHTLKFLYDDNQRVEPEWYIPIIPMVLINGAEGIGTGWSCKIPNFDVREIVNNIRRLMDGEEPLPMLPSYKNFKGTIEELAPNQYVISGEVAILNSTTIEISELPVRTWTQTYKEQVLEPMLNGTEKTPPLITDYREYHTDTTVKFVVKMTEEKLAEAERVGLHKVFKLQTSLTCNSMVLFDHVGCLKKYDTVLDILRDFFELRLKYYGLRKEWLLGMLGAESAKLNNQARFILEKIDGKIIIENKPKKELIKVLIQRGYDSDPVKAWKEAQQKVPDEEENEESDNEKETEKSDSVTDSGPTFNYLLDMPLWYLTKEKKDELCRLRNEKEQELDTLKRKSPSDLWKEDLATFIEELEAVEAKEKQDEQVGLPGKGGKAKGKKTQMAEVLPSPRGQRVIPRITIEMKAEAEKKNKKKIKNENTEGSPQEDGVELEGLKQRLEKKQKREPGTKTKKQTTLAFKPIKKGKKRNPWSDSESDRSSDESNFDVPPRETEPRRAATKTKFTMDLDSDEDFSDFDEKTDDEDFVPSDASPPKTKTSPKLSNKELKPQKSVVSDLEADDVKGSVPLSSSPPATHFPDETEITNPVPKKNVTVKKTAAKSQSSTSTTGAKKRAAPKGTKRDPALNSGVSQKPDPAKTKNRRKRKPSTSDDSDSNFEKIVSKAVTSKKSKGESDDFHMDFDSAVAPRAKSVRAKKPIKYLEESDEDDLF

`CCCc1cc(=O)oc2c(C(=O)N3CCCc4ccccc43)c(OCCN3CCN(C)CC3)ccc12` [topobexin (9)]: the TOP2A spot intensity (Cmpd 9 0.1 μM + etoposide 5 μM) was 56.77 and 79.14 and 121.2 and 109.4 and 138; the TOP2A spot intensity (Cmpd 9 1 μM + etoposide 5 μM) is 31.84 and 81.31 and 94.03 and 77.86 and 117.3; the TOP2A spot intensity (Cmpd 9 10 μM + etoposide 5 μM) was 13.9 and 41.59 and 30.46 and 21.29 and 12.52; the TOP2A spot intensity (Cmpd 9 10 μM, etoposide 0, background subtracted) was 0.2099 and 13.4 and 11.83 and 3.115 and 7.885. Also, the “concentration significantly reducing TOP2A-DNA CC” value (etoposide-induced, HEK293F) stood at 10 µM.
